Our source for the IC50 values is patent US20250026745A1 (Bluejay Therapeutics, Inc., priority 2023, published 2025).

For this test, the target named is recombinant 17β-HSD13 protein (Homo sapiens (Human), UniProt Q7Z5P4). The test is described as follows: 17β-HSD13 biochemical assay (NAD+/NADH Glo chemiluminescence). To be noted: 17β-HSD13 50 nM, NAD+ 10 mM, β-estradiol 20 μM, 2 hours room temperature. The protocol:
17β-HSD13 biochemical assays are generically described in patents WO 2022/020730, WO 2021/003295, and WO 2023/023310. More specifically, recombinant 17β-HSD13 protein was assayed in a buffer containing 200 mM Tris pH 7.5, 0.01% Triton X-100, and 0.02% BSA into a 384-well assay plate. Compounds were incubated with 17β-HSD13 (final 50 nM) and NAD+ (final 10 mM) at room temperature for 1 h prior to substrate addition. The assay reaction was then initiated by addition of β-estradiol (final 20 μM), and the reaction mixture was incubated for 2 hours at room temperature. Product formation was detected with chemiluminescence by adding equal volume of NAD+/NADH Glo reagent (Promega, #G9062) and read on a PHERAstar microplate reader (BMG LABTECH). IC50 values were determined with GraphPad Prism®, where log-transformed concentration values and the inhibition data were fitted to a four-parameter logistic equation. Y=Bottom+(Top−Bottom)/(1+10^((Log IC50−X)*HillSlope)). The original, % control, or % inhibition data are represented by Y along with their minimal (Bottom) and maximal (Top) values. The inhibitor concentration is represented by X, IC50 is the concentration at 50% maximal value, and Hill Slope is the slope factor.

Sequence of recombinant 17β-HSD13 protein (Q7Z5P4 20-300): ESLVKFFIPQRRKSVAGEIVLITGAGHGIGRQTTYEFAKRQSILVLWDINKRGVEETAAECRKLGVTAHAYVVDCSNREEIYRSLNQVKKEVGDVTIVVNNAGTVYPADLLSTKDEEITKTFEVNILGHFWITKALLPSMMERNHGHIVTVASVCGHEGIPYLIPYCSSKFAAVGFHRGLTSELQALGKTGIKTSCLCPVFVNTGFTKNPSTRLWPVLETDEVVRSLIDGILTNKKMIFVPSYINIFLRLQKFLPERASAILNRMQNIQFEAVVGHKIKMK

In the case of `O=C1N(Cc2ccccc2)C(=O)C2(CC2)N1Cc1nnc(-c2nc(C(F)(F)F)c(F)c(O)c2F)s1` [Compound I-59, 6-benzyl-4-((5-(3,5-difluoro-4-hydroxy-6-(trifluoromethyl)pyridin-2-yl)-1,3,4-thiadiazol-2-yl)methyl)-4,6-diazaspiro[2.4]heptane-5,7-dione], the IC50 was found to be 161 nM.
For the molecule `O=C1N(CCc2ccccc2)C(=O)C2(CC2)N1Cc1nnc(-c2ccc(F)c(O)c2Cl)s1` [Compound I-37, 4-((5-(2-chloro-4-fluoro-3-hydroxyphenyl)-1,3,4-thiadiazol-2-yl)methyl)-6-phenethyl-4,6-diazaspiro[2.4]heptane-5,7-dione], the IC50 worked out at 32.7 nM.
As for `O=C1N(Cc2nnc(-c3ccc(F)c(O)n3)s2)C2(CC2)C(=O)N1C1(c2ccccc2)CC1` [Compound I-104, 4-((5-(5-fluoro-6-hydroxypyridin-2-yl)-1,3,4-thiadiazol-2-yl)methyl)-6-(1-phenylcyclopropyl)-4,6-diazaspiro[2.4]heptane-5,7-dione], the IC50 worked out at 176 nM.
Take `CCN1C(=O)N(Cc2nnc(-c3ccc(F)c(O)n3)s2)C2(CC2)C1=O` [Compound I-75, 6-ethyl-4-((5-(5-fluoro-6-hydroxypyridin-2-yl)-1,3,4-thiadiazol-2-yl)methyl)-4,6-diazaspiro[2.4]heptane-5,7-dione]: the IC50 was 1360 nM.
With `O=C1N(CC(F)(F)F)C(=O)C2(CC2)N1Cc1nnc(-c2ccc(Cl)c(O)c2Cl)s1` [Compound I-17, 4-((5-(2,4-dichloro-3-hydroxyphenyl)-1,3,4-thiadiazol-2-yl)methyl)-6-(2,2,2-trifluoroethyl)-4,6-diazaspiro[2.4]heptane-5,7-dione], the IC50 turned out to be 106 nM.
For `O=C1N(Cc2ncccn2)C(=O)C2(CC2)N1Cc1nnc(-c2ccc(F)c(O)c2F)s1` [Compound I-21, 4-((5-(2,4-difluoro-3-hydroxyphenyl)-1,3,4-thiadiazol-2-yl)methyl)-6-(pyrimidin-2-ylmethyl)-4,6-diazaspiro[2.4]heptane-5,7-dione], the IC50 worked out at 620 nM.
To `CCN1C(=O)N(Cc2nnc(-c3ccc(F)c(O)c3F)s2)C2(CCC2)C1=O` [Compound I-1, 5-((5-(2,4-difluoro-3-hydroxyphenyl)-1,3,4-thiadiazol-2-yl)methyl)-7-ethyl-5,7-diazaspiro[3.4]octane-6,8-dione] belongs 56.7 nM; to `CCN1C(=O)N(Cc2nnc(-c3ccc(F)c(O)c3F)s2)C(C)(C)C1=O` [Compound I-8, 1-((5-(2,4-difluoro-3-hydroxyphenyl)-1,3,4-thiadiazol-2-yl)methyl)-3-ethyl-5,5-dimethylimidazolidine-2,4-dione], 90.8 nM; to `CCN1C(=O)N(Cc2nnc(-c3cc(C(F)(F)F)cc(O)c3Cl)s2)C2(CC2)C1=O` [Compound I-13, 4-((5-(2-chloro-3-hydroxy-5-(trifluoromethyl)phenyl)-1,3,4-thiadiazol-2-yl)methyl)-6-ethyl-4,6-diazaspiro[2.4]heptane-5,7-dione], 13.8 ± 2.2 nM.
For `O=C1N(CC2(C(F)(F)F)CC2)C(=O)C2(CC2)N1Cc1nnc(-c2ccc(Cl)c(O)c2F)s1` [Compound I-25, 4-((5-(4-chloro-2-fluoro-3-hydroxyphenyl)-1,3,4-thiadiazol-2-yl)methyl)-6-((1-(trifluoromethyl)cyclopropyl)methyl)-4,6-diazaspiro[2.4]heptane-5,7-dione], the IC50 turned out to be 146 nM.
`C[C@@H](CO)N1C(=O)N(Cc2nnc(-c3ccc(F)c(O)c3F)s2)C2(CC2)C1=O` [Compound I-47, (S)-4-((5-(2,4-difluoro-3-hydroxyphenyl)-1,3,4-thiadiazol-2-yl)methyl)-6-(1-hydroxypropan-2-yl)-4,6-diazaspiro[2.4]heptane-5,7-dione]: the IC50 is 53 nM.
On to `CC(C)(C)N1C(=O)N(Cc2nnc(-c3ccc(F)c(O)n3)s2)C2(CC2)C1=O` [Compound I-81, 6-(tert-butyl)-4-((5-(5-fluoro-6-hydroxypyridin-2-yl)-1,3,4-thiadiazol-2-yl)methyl)-4,6-diazaspiro[2.4]heptane-5,7-dione], for which the IC50 turned out to be 602 nM.
As to `O=C1N(Cc2nnc(-c3ccc(F)c(O)c3F)s2)C2(CC2)C(=O)N1C1(C(F)(F)F)CC1` [Compound I-87, 4-((5-(2,4-difluoro-3-hydroxyphenyl)-1,3,4-thiadiazol-2-yl)methyl)-6-(1-(trifluoromethyl)cyclopropyl)-4,6-diazaspiro[2.4]heptane-5,7-dione], the IC50 stood at 11.3 nM.
`O=C1N(CC(F)(F)F)C(=O)C2(CC2)N1Cc1nnc(-c2ccc(Cl)c(O)c2F)s1` [Compound I-24, 4-((5-(4-chloro-2-fluoro-3-hydroxyphenyl)-1,3,4-thiadiazol-2-yl)methyl)-6-(2,2,2-trifluoroethyl)-4,6-diazaspiro[2.4]heptane-5,7-dione]: the IC50 was 71.4 nM.
Consider `O=C1N([C@@H](c2ccc(F)cc2F)C(F)(F)F)C(=O)C2(CC2)N1Cc1nnc(-c2ccc(F)c(O)c2F)s1` [Compound I-90B, (S)-4-((5-(2,4-difluoro-3-hydroxyphenyl)-1,3,4-thiadiazol-2-yl)methyl)-6-(1-(2,4-difluorophenyl)-2,2,2-trifluoroethyl)-4,6-diazaspiro[2.4]heptane-5,7-dione], for which the IC50 was 6.53 nM.
Turning to `O=C1N(CC(F)(F)F)C(=O)C2(CC2)N1Cc1nnc(-c2cncc(O)c2Cl)s1` [Compound I-18, 4-((5-(4-chloro-5-hydroxypyridin-3-yl)-1,3,4-thiadiazol-2-yl)methyl)-6-(2,2,2-trifluoroethyl)-4,6-diazaspiro[2.4]heptane-5,7-dione], the IC50 was 193 nM.
Regarding `CCN1C(=O)N(Cc2nnc(-c3cncc(O)c3Cl)s2)C2(CC2)C1=O` [Compound I-11, 4-((5-(4-chloro-5-hydroxypyridin-3-yl)-1,3,4-thiadiazol-2-yl)methyl)-6-ethyl-4,6-diazaspiro[2.4]heptane-5,7-dione], the IC50 is 245 nM.
To “(R)-4-((5-(2,4-difluoro-3- hydroxyphenyl)-1,3,4-thiadiazol-2- yl)methyl)-6-(1-hydroxypropan-2- yl)-4,6-diazaspiro[2.4]heptane-5,7- dione [Compound I-46]” belongs 66 nM.
As to `CCN1C(=O)N(Cc2nnc(-c3cnc(F)c(O)c3)s2)C2(CC2)C1=O` [Compound I-2, 6-ethyl-4-((5-(6-fluoro-5-hydroxypyridin-3-yl)-1,3,4-thiadiazol-2-yl)methyl)-4,6-diazaspiro[2.4]heptane-5,7-dione], the IC50 stood at 156 nM.
Take `O=C1N(Cc2ccccc2)C(=O)C2(CC2)N1Cc1nnc(-c2ccc(Cl)c(O)c2Cl)s1` [Compound I-36, 6-benzyl-4-((5-(2,4-dichloro-3-hydroxyphenyl)-1,3,4-thiadiazol-2-yl)methyl)-4,6-diazaspiro[2.4]heptane-5,7-dione]: the IC50 turned out to be 38.5 nM.
To `COc1ccc(CN2C(=O)N(Cc3nnc(-c4ccc(F)c(O)c4Cl)s3)C3(CC3)C2=O)c(F)c1` [Compound I-44, 4-((5-(2-chloro-4-fluoro-3-hydroxyphenyl)-1,3,4-thiadiazol-2-yl)methyl)-6-(2-fluoro-4-methoxybenzyl)-4,6-diazaspiro[2.4]heptane-5,7-dione] belongs 7.38 nM.
`O=C1NC(=O)C2(CC2)N1Cc1nnc(-c2ccc(F)c(O)c2F)s1` [Compound I-27, 4-((5-(2,4-difluoro-3-hydroxyphenyl)-1,3,4-thiadiazol-2-yl)methyl)-4,6-diazaspiro[2.4]heptane-5,7-dione]: the IC50 was determined as 355 nM.
Consider `CCN1C(=O)N(Cc2nnc(-c3ccc(Cl)c(O)c3F)s2)C2(CC2)C1=O` [Compound I-23, 4-[[5-(4-chloro-2-fluoro-3-hydroxy-phenyl)-1,3,4-thiadiazol-2-yl]methyl]-6-ethyl-4,6-diazaspiro[2.4]heptane-5,7-dione], for which the half-inhibitory concentration (IC50) was 78.8 nM.
On to `C[C@H](COCC(=O)O)N1C(=O)N(Cc2nnc(-c3ccc(F)c(O)c3F)s2)C2(CC2)C1=O` [Compound I-48], for which the IC50 was found to be 1060 nM.
Next, `C[C@@H](COCC(=O)O)N1C(=O)N(Cc2nnc(-c3ccc(F)c(O)c3F)s2)C2(CC2)C1=O` [Compound I-49]: 426 nM; `O=C1N(C2CC2)C(=O)C2(CC2)N1Cc1nnc(-c2ccc(F)c(O)c2F)s1` [Compound I-43, 6-cyclopropyl-4-((5-(2,4-difluoro-3-hydroxyphenyl)-1,3,4-thiadiazol-2-yl)methyl)-4,6-diazaspiro[2.4]heptane-5,7-dione]: 18.5 nM.
Take `O=C1N(Cc2ccc(F)cc2F)C(=O)C2(CC2)N1Cc1nnc(-c2ccc(F)c(O)c2Cl)s1` [Compound I-33, 4-((5-(2-chloro-4-fluoro-3-hydroxyphenyl)-1,3,4-thiadiazol-2-yl)methyl)-6-(2,4-difluorobenzyl)-4,6-diazaspiro[2.4]heptane-5,7-dione]: the half-maximal inhibitory concentration (IC50) turned out to be 8.83 nM.
Turning to `O=C1N(CC(F)(F)F)C(=O)C2(CC2)N1Cc1nnc(-c2ccc(F)c(O)n2)s1` [Compound I-73, 4-((5-(5-fluoro-6-hydroxypyridin-2-yl)-1,3,4-thiadiazol-2-yl)methyl)-6-(2,2,2-trifluoroethyl)-4,6-diazaspiro[2.4]heptane-5,7-dione], the IC50 was 1390 nM.
Take `CCCCN1C(=O)N(Cc2nnc(-c3ccc(F)c(O)c3F)s2)C2(CC2)C1=O` [Compound I-28, 6-butyl-4-((5-(2,4-difluoro-3-hydroxyphenyl)-1,3,4-thiadiazol-2-yl)methyl)-4,6-diazaspiro[2.4]heptane-5,7-dione]: the IC50 was determined as 8.11 nM.
